Laboratory results: ChEMBL document CHEMBL4390673, “Identification of Novel Coumestan Derivatives as Polyketide Synthase 13 Inhibitors against Mycobacterium tuberculosis. Part II” (J Med Chem, 2019)
pIC50: −log10 of the molar value. ≈ marks a conversion by molar mass, not a printed value. Calls of active or inactive are those of the source. The calls are words filed in the database; no cut-off is given here.

Key:
Vero = assay: Cytotoxicity against African green monkey Vero cells by microplate alamar blue assay; assay type: cell-based; details: Chlorocebus sabaeus
[1] = Selectivity index, ratio of IC50 for African green monkey Vero cells to MIC=; assay type: toxicity; details: read-out: Ratio IC50
[2] = tested on: Mycobacterium tuberculosis; assay: Antitubercular activity against Mycobacterium tuberculosis H37Rv by microdilution method; assay type: functional
[3] = tested on: Mycobacterium tuberculosis; assay: Antitubercular activity against Mycobacterium tuberculosis H37Rv exposed to serially diluted serum from 100 mg/kg, po treated BALB/c mouse assessed as reduction in bacterial growth measured after 7 days by microplate alamar blue assay; assay type: functional, organism-based
[4] = tested on: Mycobacterium tuberculosis; assay: Antitubercular activity against Mycobacterium tuberculosis H37Rv after 6 days by resazurin dye based fluorescence assay; details: 144 h
[5] = tested on: Mycobacterium tuberculosis; assay: Antitubercular activity against Mycobacterium tuberculosis H37Rv measured after 7 days under aerobic condition by resazurin dye based assay; assay type: functional; details: 168 h
in vitro [6] = details: human, liver microsomes
Description: Half life in human liver microsomes

in vitro [7] = details: human, liver microsomes; remark: listed apart in the source
Description: Intrinsic clearance in human liver microsomes

in vitro [8] = details: human, liver microsomes; remark: listed apart in the source
Description: Intrinsic clearance in human liver measured from intrinsic clearance in human liver microsomes

in vitro [9] = details: human, liver microsomes; remark: listed apart in the source
Description: Stability in human liver microsomes assessed as parent compound remaining measured after 60 mins

[10] = Cytotoxicity against human QSG7701 cells measured after 48 hrs by CellTiter 96 AQueous One Solution Cell Proliferation assay; assay type: cell-based; details: QSG7701, 48 h
MRC5 = assay: Cytotoxicity against human MRC5 cells measured after 48 hrs by CellTiter 96 AQueous One Solution Cell Proliferation assay; assay type: cell-based; details: MRC5, 48 h
HFL1 = assay: Cytotoxicity against HFL1 cells measured after 48 hrs by CellTiter 96 AQueous One Solution Cell Proliferation assay; assay type: cell-based; details: Homo sapiens, HFL1, 48 h
HEK293 = assay: Cytotoxicity against HEK293 cells measured after 48 hrs by CellTiter 96 AQueous One Solution Cell Proliferation assay; assay type: cell-based; details: Homo sapiens, HEK293, 48 h
Bacillus subtilis = assay: Growth inhibition of Bacillus subtilis 168; assay type: organism-based, subsp. subtilis str. 168
Escherichia coli [11] = assay: Growth inhibition of Escherichia coli AB1157; assay type: organism-based; details: in vivo
Escherichia coli [12] = assay: Growth inhibition of Escherichia coli DH5[alpha]; assay type: organism-based; details: in vivo
[13] = tested on: Mycobacterium tuberculosis; assay: Antitubercular activity against Mycobacterium tuberculosis H37Rv exposed to 1:1024 diluted serum from 50 mg/kg, po treated BALB/c mouse assessed as reduction in bacterial growth measured after 7 days by microplate alamar blue assay; assay type: functional, organism-based
[14] = tested on: Mycobacterium tuberculosis; assay: Antitubercular activity against Mycobacterium tuberculosis H37Rv measured after 7 days by alamar blue assay; assay type: functional; details: 168 h
[15] = tested on: Mycobacterium tuberculosis; assay: Bactericidal activity against Mycobacterium tuberculosis H37Rv assessed as reduction in colony forming units incubated for 14 days followed by replating on 7H11 agar plates and measured by broth dilution method; assay type: functional
Staphylococcus aureus = assay: Growth inhibition of Staphylococcus aureus Newman; assay type: organism-based; details: in vivo
[16] = tested on: Mycobacterium tuberculosis; assay: Antitubercular activity against Mycobacterium tuberculosis H37Rv; assay type: functional
[17] = tested on: Mycobacterium tuberculosis; assay: Antitubercular activity against Mycobacterium tuberculosis H37Rv exposed to serially diluted serum from 10 mg/kg, po treated BALB/c mouse assessed as reduction in bacterial growth measured after 7 days by microplate alamar blue assay; assay type: functional, organism-based

O=c1oc2ccc(O)cc2c2oc3ccc(O)c(CN4CCCCC4)c3c12
IC50 (Vero): 4 µg/mL (≈ 10.9 µM)
selectivity ratio [1]: 8

COC(=O)c1c(NC(=O)c2c(F)c(F)c(F)c(F)c2F)sc2c1CCCCC2
MIC [2]: 1 µM (≈ 0.419 µg/mL)

CNC(=O)c1c(-c2ccc(O)cc2)oc2ccc(O)c(CN3CCCCC3)c12
Activity [3]: Active
MIC [4]: 0.0313 µg/mL (≈ 0.0823 µM)

Cc1cc(O)c(CN2CCCCC2)c2c1oc1c3ccccc3oc(=O)c12
IC50 (Vero): 8 µg/mL (≈ 22 µM)
selectivity ratio [1]: 64

CC1CCN(Cc2c(O)ccc3oc4c5ccccc5oc(=O)c4c23)CC1
IC50 (Vero): 16 µg/mL (≈ 44 µM)
selectivity ratio [1]: 32

C=CCCCCCCC[C@H]1C(=O)O[C@@H]1CCCCCNC(=O)c1ccc(N(C)C)cc1
MIC [5]: 0.68 µg/mL (≈ 1.59 µM)

O=c1oc2ccccc2c2oc3ccc(O)c(CN4CCCCC4)c3c12
half-life (in vitro [6]): 21.4 min
CLint scaled (in vitro [7]): 64.9 mL/min/kg
CLint scaled (in vitro [8]): 58.4 mL/min/kg
remaining at 1 h (in vitro [9]): 14.5%

CCOC(=O)c1c(-c2ccc(O)cc2)oc2ccc(O)c(CN3CCCCC3)c12
CLint scaled (in vitro [8]): 66.3 mL/min/kg
remaining at 1 h (in vitro [9]): 10.8%

CC(C)(C)c1cc(O)c(CN2CCCCC2)c2c1oc1c3ccccc3oc(=O)c12
IC50 (Vero): 16 µg/mL (≈ 39.5 µM)
selectivity ratio [1]: 128 to 256

CCOC(=O)c1c(NC(=O)c2c(F)c(F)c(F)c(F)c2F)sc(C(N)=O)c1C
MIC [2]: 0.5 µM (≈ 0.211 µg/mL)

CC(C)(C)c1cc(O)c(CN2CCCCC2)c2c1oc1c3ccc(O)cc3oc(=O)c12
pIC50 [10]: 4.47
IC50 (Vero): 8 µg/mL (≈ 19 µM)
selectivity ratio [1]: 2048
pIC50 (MRC5): 4.51
pIC50 (HFL1): 4.65
pIC50 (HEK293): 4.47
MIC (Bacillus subtilis): > 25 µg/mL
MIC (Escherichia coli [11]): > 25 µg/mL
MIC (Escherichia coli [12]): > 25 µg/mL
Activity [3]: Active
Activity [13]: inactive

CC1CCCCN1Cc1c(O)ccc2oc3c4ccccc4oc(=O)c3c12 (centres undefined)
IC50 (Vero): 16 µg/mL (≈ 44 µM)
selectivity ratio [1]: 16

C[C@]12CC[C@H]3[C@@H](CCC4=CC(=O)CC[C@@]43C)[C@@H]1CC[C@@H]2O [TESTOSTERONE]
CLint scaled (in vitro [8]): 62.8 mL/min/kg
remaining at 1 h (in vitro [9]): 12.5%

CC(C)(C)c1cc(O)c(CN2CCCCC2)c2c1oc1c3cc(O)ccc3oc(=O)c12
IC50 (Vero): 8 µg/mL (≈ 19 µM)
selectivity ratio [1]: 64

O=C(O)Cc1ccccc1Nc1c(Cl)cccc1Cl [DICLOFENAC]
half-life (in vitro [6]): 11.9 min
CLint scaled (in vitro [8]): 105 mL/min/kg

CCOC(=O)C1=C(NC(=O)c2c(F)c(F)c(F)c(F)c2F)SC2CN(CC)CCC12 (centres undefined)
MIC [14]: 0.23 µM (≈ 0.104 µg/mL)

CCOC(=O)c1c(-c2ccccc2)oc2ccc(O)c(CN3CCCCC3)c12
half-life (in vitro [6]): 53 min
CLint scaled (in vitro [7]): 26.2 mL/min/kg
CLint scaled (in vitro [8]): 23.6 mL/min/kg
remaining at 1 h (in vitro [9]): 46.6%

O=c1oc2ccccc2c2oc3ccc(O)c(CN4CCCC4)c3c12
IC50 (Vero): 8 µg/mL (≈ 23.9 µM)
selectivity ratio [1]: 16

O=c1oc2cc(O)ccc2c2oc3ccc(O)c(CN4CCCCC4)c3c12
MBC99 [15]: 0.0039 to 0.0078 µg/mL
pIC50 [10]: 4.40
IC50 (Vero): 4 µg/mL (≈ 10.9 µM)
selectivity ratio [1]: 1024
pIC50 (MRC5): < 4.30
pIC50 (HFL1): < 4.30
pIC50 (HEK293): < 4.30
MIC (Staphylococcus aureus): > 25 µg/mL
MIC (Bacillus subtilis): > 25 µg/mL
MIC (Escherichia coli [11]): > 25 µg/mL
MIC (Escherichia coli [12]): > 25 µg/mL
Activity [13]: Active
remaining at 1 h (in vitro [9]): 73.6%

CCOC(=O)c1c(-c2ccccc2)oc2ccc(O)c(CN3CCC(C)CC3)c12
MIC [16]: 1 µg/mL (≈ 2.54 µM)

CN[C@H](CC(C)C)C(=O)N[C@H]1C(=O)N[C@@H](CC(N)=O)C(=O)N[C@H]2C(=O)N[C@H]3C(=O)N[C@H](C(=O)N[C@H](C(=O)O)c4cc(O)cc(O)c4-c4cc3ccc4O)[C@H](O)c3ccc(c(Cl)c3)Oc3cc2cc(c3O[C@@H]2O[C@H](CO)[C@@H](O)[C@H](O)[C@H]2O[C@H]2C[C@](C)(N)[C@H](O)[C@H](C)O2)Oc2ccc(cc2Cl)[C@H]1O [VANCOMYCIN]
MIC (Bacillus subtilis): > 25 µg/mL
MIC (Escherichia coli [11]): > 25 µg/mL
MIC (Escherichia coli [12]): > 25 µg/mL

CN(C)[C@@H]1C(O)=C(C(N)=O)C(=O)[C@@]2(O)C(O)=C3C(=O)c4c(O)cccc4[C@@](C)(O)[C@H]3C[C@@H]12 [TETRACYCLINE]
MIC (Bacillus subtilis): > 25 µg/mL

NNC(=O)c1ccncc1
Activity [17]: Active
